Experimental data from patent US20160153032A9, “METHOD FOR PREDICTING A MANIFESTATION OF AN OUTCOME MEASURE OF A CANCER PATIENT” (Signature Diagnostics AG, priority 2013, published 2016).

Tested on: patient derived xenografts (PDXs) of colorectal tumors
Assay: Therapy experiments in patient derived xenograft models, treated to control (T/C) ratio of tumor size
Type: in vivo, NMRI: nu/nu mice
Conditions: monotherapy, 67 PDX models
Experimental: Transplantation of 239 human, primary colorectal tumors of patients with colorectal cancer of all four UICC stages was performed onto nude mice. […] For each drug and each of the 67 xenograft models, five mice were treated in addition to five control animals (335 animals plus 335 controls per drug). At the end of the therapy experiment, the median diameter of the tumors (C) of the 5 control animals is devided by the median diameter of the five treated animals (T).
Shortly after surgery, original colorectal cancer tumor pieces were shipped in gentamicin containing RPMI-1640 medium to the mouse facility. After arrival at the mouse facilities they were transplanted onto immunodeficient mice and were further passaged until a stably grown tumor xenografts has developed.
Surgical colorectal tumor samples were cut into pieces of 3 to 4 mm and transplanted within 30 min s.c. to 3 to 6 immunodeficient NOD/SCID mice (Taconic); the gender of the mice was chosen according to the donor patient. Additional tissue samples were immediately snap-frozen and stored at −80° C. for genetic, genomic, and protein analyses. […] Mice were observed daily for tumor growth. At a size of about 1 cm3, tumors were removed and passaged to naive NMRI: nu/nu mice (Charles River) for chemosensitivity testing. Tumors were passaged no more than 10 times. Numerous samples from early passages were stored in the tissue bank in liquid nitrogen and used for further experiments. […] All xenografts as well as the corresponding primary tumors were subjected to histological evaluation using snap-frozen, haematoxylin-eosin-stained tissue sections.
Each of the 75 tumors was transplanted onto 20 mice (5 controls and 5 for each drug).
The chemotherapeutic response of the passagable tumors was determined in male NMRI: nu/nu mice. For that purpose, one tumor fragment each was transplanted s.c. to a number of mice. At palpable tumor size (50-100 mm^3), 6 to 8 mice each were randomized to treatment and control groups and treatment was initiated. […] Doses and schedules were chosen according to previous experience in animal experiments and represent the maximum tolerated or efficient doses. The injection volume was 0.2 ml/20 g body weight.
Tumor size was measured in two dimensions twice weekly with a caliper-like instrument. Individual tumor volumes (V) were calculated by the formula: V=(length+[width]2)/2 and related to the values at the first day of treatment (relative tumor volume). Median treated to control (T/C) values of relative tumor volume were used for the evaluation of each treatment modality and categorized according to scores (− to ++++;). The mean tumor doubling time of each xenograft model was calculated by comparing the size between 2- and 4-fold relative tumor volumes. Statistical analyses were done with the U test (Mann and Whitney) with P<0.05. The body weight of mice was determined every 3 to 4 days and the change in body weight was taken as variable for tolerability.

## Bevacizumab: humanized monoclonal antibody that binds to vascular endothelial growth factor A (VEGF-A)
T/C</=25 (T/C<25)
  Nonresponder PDXs: 56
T/C</=30, tumor growth inhibited by at least 70%
  Responder PDXs: 13
T/C</=30
  Nonresponder PDXs: 54
T/C</=35 (T/C<35), tumor growth inhibited by at least 65%
  Responder PDXs: 19
T/C</=35 (T/C<35)
  Nonresponder PDXs: 48
